Test results from patent US7989466B2, “Methods to inhibit or augment an inflammatory response” (Cambridge Enterprise Limited, priority 1999, dated 2011).
pEC50, pKd: −log10 of the molar value. Positions of bridges follow the written chain, without caps; N, C: chain ends. Non-standard residues stand in square brackets, D forms with d. Residues, ends and D or L forms follow the SMILES beside them.

Legend:
[1] = Stability against acid hydrolysis and trypsin; format: in vitro ADME; conditions: 5 units trypsin for 2 hrs at 37° C.
Method: (§1) For example, to prepare a peptide 3 derivative, peptide 3(3-12)[MCP-1] was modified according to Jameson et al. (Nature, 368, 744 (1994)), which yielded CRD-Cys13Leu4Ile11peptide 3(3-12)[MCP-1] (FIG. 3). CRD-Cys13Leu4Ile11peptide 3(3-12)[MCP-1], which had very similar properties to peptide 3(1-12)[MCP-1] […] CRD-Cys13Leu4Ile11peptide 3(3-12)[MCP-1] was also resistant to hydrolysis in vivo and allowed therapeutically useful plasma concentrations to be achieved (>10 μM 24 hours after a single intraperitoneal dose of 1 mg of CRD-Cys13Leu4Ile11peptide 3(3-12)[MCP-1] in 250 μL saline).

[2] = Plasma concentration after a single intraperitoneal dose; format: in vivo; conditions: ip, 24 hours after a single intraperitoneal dose of 1 mg in 250 μL saline
Method: as §1

[3] = system: fMLP induced THP-1 migration; test: THP-1 chemotaxis assay, fMLP as chemoattractant; format: cell-based; conditions: Homo sapiens, fMLP is not a chemokine, read-out: ED50, fMLP chemotaxis assay
Method: To determine whether an agent inhibits a chemokine-induced activity, such as macrophage recruitment, varying amounts of the agent are mixed with cells in the presence of a known chemoattractant. For example, a range of known concentrations of an agent, e.g., a chemokine peptide, is incubated with a defined number (e.g., 10^4-10^6) of human THP-1 monocyte cells in individual wells of the top compartment of a trans-well plate. Chemokine (such as MCP-1, MIP1α, IL8 or SDF-1α), at a concentration known to cause significant migration of THP-1 cells in the trans-well migration assay, is placed in the lower compartment (FIG. 1). Cells are then incubated at 37° C. for a period sufficient to allow migration, e.g., 4 hours. After incubation, the cells are gently removed from the top of the filter with a pipette, 20 μl of 20 mM EDTA in simple PBS is added into each top well, and incubated for 20 minutes at 4° C. The filter is carefully flushed with media using a gentle flow, and removed. A standard curve consisting of a two-fold dilution series of THP-1 cells (in 29 μl) is prepared to accurately quantify the number of cells that have migrated. […] Absorbance of converted dye is measured at a wavelength of 595 nm using an ELISA plate reader. The number of migrated cells in each well is then determined by interpolation of the standard curve (see also Imai et al., J. Biol. Chem., 272, 15036 (1997)). […]

[4] = target: recombinant human chemokine receptors (CCR1-5, CXCR4, CXCR1, CXCR2); test: Binding of biotin-labeled peptides to chemokine receptor expressing HOS/CHO lines; conditions: no evidence for any binding; read-out: affinity of any binding to recombinant human chemokine receptors
Method: Iodinated-RANTES and iodinated-MCP-1 (Amersham) were reconstituted in MilliQ water to a concentration of 50 nM (0.1 μCi/μl) with a specific activity of 2000 Ci/mmole. Iodinated-streptavidin was obtained (Amersham) at a stock concentration of 47 nM (0.1 μCi/μl) and a specific activity of 38 μCi/μg (55,000 Da). Cold RANTES and MCP-1 were purchased from R&D Systems (Minneapolis, Minn.), reconstituted in sterile PBS+1 mg/ml fatty acid free BSA (FAF-BSA) (Sigma A-6003) at 10 μg/ml ([…]). Cold streptavidin (Calbiochem) was reconstituted in sterile MilliQ to a concentration of 4 mg/ml (90 μM).
FAF-BSA was used throughout. All experiments were performed in binding medium (50 mM HEPES, 1 mM CaCl2, 1 mM MgCl2, 0.5% FAF-BSA pH 7.5) as described by Ruffing et al. (Cell. Immunol., 189, 160 (1998)) unless stated otherwise. Reactions were all performed at 4° C. and all buffers were pre-cooled to 4° C. unless stated otherwise.
The biotinylated peptide was synthesized as an N-terminal biotin conjugate of the sequence n′-[…]-c′ (SEQ ID NO:152; Affiniti Research) and confirmed as >90% pure by HPLC. […]
The binding of labeled peptide 2 and labeled peptide 3 to the parental HOS, parental CHO and 8 chemokine receptor expressing lines was compared. […] The amount of streptavidin molecules added was calculated in each case to be approximately 50-fold in excess over the number of chemokine receptor sites. […]

With `CC[C@@H](C)[C@H]1NC(=O)[C@@H](CCC(N)=O)NC(=O)[C@H](N)CSSC[C@H](C(N)=O)NC(=O)[C@@H](CC(C)C)NC(=O)[C@@H](CC(=O)O)NC(=O)[C@H]2CCCN2C(=O)[C@@H](CCCCN)NC(=O)[C@@H](CCC(N)=O)NC(=O)[C@@H](CCCCN)NC(=O)[C@@H](Cc2c[nH]c3ccccc23)NC1=O` (H-[dC][dQ][dI][dW][dK][dQ][dK][dP][dD][dL][dC]-NH2; disulfide 1-11; N-terminus assumed) the “stability against enzymatic destruction” value [1] was “stable” and the level at time molar at 24 h [2] was greater than 10 µM.

In the case of `C=CCCCCCCCCC(=O)N[C@H]1CCC(=O)NC1=O` [A-I (NR58.4), [3S]-3-(undec-10-enoylamino)piperidine-2,6-dione], the pEC50 [3] was less than 4.00.

In the case of EICADPKQKWVQ [peptide 3(1-12)[MCP-1]], the pKd [4] was less than 5.00.
